Assay results from patent publication US12655184B2, “Labyrinthin-based peptides for cancer immunotherapies and uses thereof” (LABYRX IMMUNOLOGIC THERAPEUTICS (USA) LIMITED, priority 2018, dated 2026).
Ends that are not written are not given here.

Experiments:
Assay type in all cases: physicochemical
[1] = solubility tests in DMSO, normal saline and 0.2 M NaCl by visual examination; conditions: for Solubility (dissolved Yes/No), 0.2M Sodium (NaCl): 0.2 M NaCl; for Solubility (dissolved Yes/No), 0.154M Sodium (NaCl): normal saline, 0.154 M NaCl
Protocol: Additional testing was completed to attempt to overcome the above-identified solubility issues. Results of the solubility tests performed for each labyrinthin-derived peptide candidate (SEQ ID NOS:29-32) are shown in Table 5. In short, all peptides were again dissolved in DMSO, confirming that the peptides had the capacity to dissolve in solution. Peptide solubility was then tested in normal saline (0.154 M sodium (NaCl)) and 0.2 M sodium (NaCl). Normal saline is generally an option as a solvent/diluent as use for such purpose is accepted by the […]. […] Additional solutions were tested to determine an alternative diluent to solubilize the candidate peptides, as determined by visual examination.

[2] = solubility in phosphate buffer with/without 0.9% NaCl, pH serially lowered with acetic acid, concentration remaining in solution
Protocol: In further solubility testing, two tubes of 1.1 mg peptide for each of the four candidate peptides target was dissolved into 1 mL phosphate buffer (pH 10) (with and without 0.9% NaCl). The peptide solutions were subsequently stored at 4° C. for several hours to dissolve the peptides thoroughly. Following centrifugation, the peptide concentration that remained in solution was measured. The solubility of all four peptide candidates under all tested condition in Table 6 as above 0.3 mg/mL, and for each peptide candidate the variability of solubility across the pH ranges tested was minimal.

[3] = solubility by visual examination in ultrapure water, PBS and DMSO; conditions: for Solubility, PBS (pH 7.4): 0.1 M PBS pH 7.4, visual examination
Protocol: The solubility of each labyrinthin-derived peptide candidate was assessed by visual examination in ultrapure water, 0.1 M PBS (PBS; pH 7.4), and dimethyl sulfoxide (DMSO; analytical grade). As reported in Table 4, a solubility of less than 0.1 mg/mL of solvent was defined as “Undissolved” and solubility of greater than or 0.1 mg/mL was defined as “Dissolved.” The concentration range of measured solubility is provided under the “Dissolved” classification where available (Table 4).

[4] = pH 4, PBS with 0.9% NaCl, pH 4, read-out: Solubility pH 4
[5] = pH 4, PBS without NaCl, pH 4, read-out: Solubility pH 4
[6] = pH 5, PBS with 0.9% NaCl, pH 5, read-out: Solubility pH 5
[7] = pH 5, PBS without NaCl, pH 5, read-out: Solubility pH 5
[8] = pH 5.5, PBS with 0.9% NaCl, pH 5.5, read-out: Solubility pH 5.5
[9] = pH 5.5, PBS without NaCl, pH 5.5, read-out: Solubility pH 5.5
[10] = pH 6, PBS with 0.9% NaCl, pH 6, read-out: Solubility pH 6
[11] = pH 6, PBS without NaCl, pH 6, read-out: Solubility pH 6
[12] = pH 6.5, PBS with 0.9% NaCl, pH 6.5, read-out: Solubility pH 6.5
[13] = pH 6.5, PBS without NaCl, pH 6.5, read-out: Solubility pH 6.5
[14] = pH 7, PBS with 0.9% NaCl, pH 7, read-out: Solubility pH 7
[15] = pH 7, PBS without NaCl, pH 7, read-out: Solubility pH 7
[16] = pH 7.5, PBS with 0.9% NaCl, pH 7.5, read-out: Solubility pH 7.5
[17] = pH 7.5, PBS without NaCl, pH 7.5, read-out: Solubility pH 7.5
[18] = pH 8, PBS with 0.9% NaCl, pH 8, read-out: Solubility pH 8
[19] = pH 8, PBS without NaCl, pH 8, read-out: Solubility pH 8
[20] = pH 8.5, PBS with 0.9% NaCl, pH 8.5, read-out: Solubility pH 8.5
[21] = pH 8.5, PBS without NaCl, pH 8.5, read-out: Solubility pH 8.5
[22] = pH 9, PBS with 0.9% NaCl, pH 9, read-out: Solubility pH 9
[23] = pH 9, PBS without NaCl, pH 9, read-out: Solubility pH 9
[24] = pH 10, PBS with 0.9% NaCl, pH 10, read-out: Solubility pH 10
[25] = pH 10, PBS without NaCl, pH 10, read-out: Solubility pH 10
[26] = DMSO analytical grade, visual examination, read-out: Solubility, DMSO
[27] = DMSO, read-out: concentration range of measured solubility, DMSO
[28] = pH 7.4, 0.1 M PBS pH 7.4, visual examination, read-out: Solubility, PBS (pH 7.4)
[29] = pH 7.4, 0.1 M PBS pH 7.4, read-out: concentration range of measured solubility, PBS (pH 7.4)
[30] = ultrapure water, visual examination
[31] = ultrapure water, visual examination, read-out: Solubility, Ultrapure water

With DMEEMMSEQENPDSSEPVVEDE [SEQ ID NO: 30] the “Solubility (dissolved Yes/No), 0.2M Sodium (NaCl)” value [1] was “Yes”, the “Solubility (dissolved Yes/No), DMSO” value [1] was “Yes” and the “Solubility (dissolved Yes/No), 0.154M Sodium (NaCl)” value [1] was “Yes”. The solubility [2, 4] was 496 µg/mL, the solubility [2, 5] was 647 µg/mL and the solubility [2, 6] was 510 µg/mL. It also gave a solubility [2, 7] of 669 µg/mL, a solubility [2, 8] of 510 µg/mL and a solubility [2, 9] of 667 µg/mL. For the same sequence, the solubility [2, 10] was 529 µg/mL, the solubility [2, 11] was 674 µg/mL and the solubility [2, 12] was 498 µg/mL. The solubility [2, 13] was 673 µg/mL, the solubility [2, 14] was 539 µg/mL and the solubility [2, 15] was 710 µg/mL. For the same sequence, the solubility [2, 16] was 555 µg/mL, the solubility [2, 17] was 712 µg/mL and the solubility [2, 18] was 542 µg/mL. The solubility [2, 19] was 720 µg/mL, the solubility [2, 20] was 540 µg/mL and the solubility [2, 21] was 730 µg/mL. The solubility [2, 22] was 548 µg/mL, the solubility [2, 23] was 738 µg/mL and the solubility [2, 24] was 552 µg/mL. For the same sequence, the solubility [2, 25] was 726 µg/mL, the solubility [3, 26] was greater than 100 µg/mL and the solubility [3, 27] was no more than 10000 µg/mL. For the same sequence, the solubility [3, 28] was greater than 100 µg/mL, the solubility [3, 29] was no more than 10000 µg/mL and the “Solubility, Ultrapure water” value [3, 30] was “undissolved”. The solubility [3, 31] was less than 100 µg/mL.

With NEGIEITEVTAPPEDNPVEDSQ [SEQ ID NO: 31] the “Solubility (dissolved Yes/No), 0.2M Sodium (NaCl)” value [1] was “Yes”, the “Solubility (dissolved Yes/No), DMSO” value [1] was “Yes” and the “Solubility (dissolved Yes/No), 0.154M Sodium (NaCl)” value [1] was “No”. For the same sequence, the “Solubility (dissolved Yes/No), 0.154M Sodium (NaCl)” value ([1]; listed as SEQ ID NO:31) was “did not dissolve”, the solubility [2, 4] was 806 µg/mL and the solubility [2, 5] was 777 µg/mL. The solubility [2, 6] was 813 µg/mL, the solubility [2, 7] was 802 µg/mL and the solubility [2, 8] was 826 µg/mL. The solubility [2, 9] was 819 µg/mL, the solubility [2, 10] was 833 µg/mL and the solubility [2, 11] was 773 µg/mL. It also gave a solubility [2, 12] of 831 µg/mL, a solubility [2, 13] of 769 µg/mL and a solubility [2, 14] of 838 µg/mL. The solubility [2, 15] was 825 µg/mL, the solubility [2, 16] was 852 µg/mL and the solubility [2, 17] was 812 µg/mL. It also gave a solubility [2, 18] of 861 µg/mL, a solubility [2, 19] of 847 µg/mL and a solubility [2, 20] of 848 µg/mL. It also gave a solubility [2, 21] of 854 µg/mL, a solubility [2, 22] of 866 µg/mL and a solubility [2, 23] of 857 µg/mL. For the same sequence, the solubility [2, 24] was 881 µg/mL, the solubility [2, 25] was 849 µg/mL and the “Solubility, PBS (pH 7.4)” value [3] was “did not improve solubility”. For the same sequence, the solubility [3, 26] was greater than 100 µg/mL, the solubility [3, 27] was no more than 5000 µg/mL and the solubility [3, 28] was less than 100 µg/mL. For the same sequence, the “Solubility, Ultrapure water” value [3, 30] was “undissolved” and the solubility [3, 31] was less than 100 µg/mL.

With DSQVIVEEVSIFPVEEQQEVPPD [SEQ ID NO: 32] the “Solubility (dissolved Yes/No), 0.2M Sodium (NaCl)” value [1] was “Yes”, the “Solubility (dissolved Yes/No), DMSO” value [1] was “Yes” and the “Solubility (dissolved Yes/No), 0.154M Sodium (NaCl)” value [1] was “No”. The “Solubility (dissolved Yes/No), 0.154M Sodium (NaCl)” value ([1]; listed as SEQ ID NO:32) was “did not dissolve”, the solubility [2, 4] was 382 µg/mL and the solubility [2, 5] was 387 µg/mL. It also gave a solubility [2, 6] of 401 µg/mL, a solubility [2, 7] of 397 µg/mL and a solubility [2, 8] of 412 µg/mL. For the same sequence, the solubility [2, 9] was 337 µg/mL, the solubility [2, 10] was 411 µg/mL and the solubility [2, 11] was 404 µg/mL. The solubility [2, 12] was 406 µg/mL, the solubility [2, 13] was 407 µg/mL and the solubility [2, 14] was 412 µg/mL. For the same sequence, the solubility [2, 15] was 402 µg/mL, the solubility [2, 16] was 412 µg/mL and the solubility [2, 17] was 415 µg/mL. It also gave a solubility [2, 18] of 415 µg/mL, a solubility [2, 19] of 421 µg/mL and a solubility [2, 20] of 433 µg/mL. For the same sequence, the solubility [2, 21] was 424 µg/mL, the solubility [2, 22] was 426 µg/mL and the solubility [2, 23] was 445 µg/mL. For the same sequence, the solubility [2, 24] was 413 µg/mL, the solubility [2, 25] was 419 µg/mL and the “Solubility, PBS (pH 7.4)” value [3] was “did not improve solubility”. It also gave a solubility [3, 26] greater than 100 µg/mL, a solubility [3, 27] of no more than 10000 µg/mL and a solubility [3, 28] of less than 100 µg/mL. The “Solubility, Ultrapure water” value [3, 30] was “undissolved” and the solubility [3, 31] was less than 100 µg/mL.

With GEDLQQEDGPTGEPQQEDDEFL [SEQ ID NO: 29] the “Solubility (dissolved Yes/No), 0.2M Sodium (NaCl)” value [1] was “Yes”, the “Solubility (dissolved Yes/No), DMSO” value [1] was “Yes” and the “Solubility (dissolved Yes/No), 0.154M Sodium (NaCl)” value [1] was “Yes”. For the same sequence, the solubility [2, 4] was 687 µg/mL, the solubility [2, 5] was 731 µg/mL and the solubility [2, 6] was 694 µg/mL. It also gave a solubility [2, 7] of 738 µg/mL, a solubility [2, 8] of 695 µg/mL and a solubility [2, 9] of 738 µg/mL. For the same sequence, the solubility [2, 10] was 695 µg/mL, the solubility [2, 11] was 742 µg/mL and the solubility [2, 12] was 706 µg/mL. It also gave a solubility [2, 13] of 753 µg/mL, a solubility [2, 14] of 701 µg/mL and a solubility [2, 15] of 748 µg/mL. It also gave a solubility [2, 16] of 703 µg/mL, a solubility [2, 17] of 757 µg/mL and a solubility [2, 18] of 707 µg/mL. For the same sequence, the solubility [2, 19] was 756 µg/mL, the solubility [2, 20] was 702 µg/mL and the solubility [2, 21] was 762 µg/mL. For the same sequence, the solubility [2, 22] was 707 µg/mL, the solubility [2, 23] was 757 µg/mL and the solubility [2, 24] was 708 µg/mL. It also gave a solubility [2, 25] of 765 µg/mL, a solubility [3, 26] greater than 100 µg/mL and a solubility [3, 28] greater than 100 µg/mL. It also gave a solubility [3, 29] of no more than 10000 µg/mL, a solubility [3, 31] greater than 100 µg/mL and a solubility ([3]; ultrapure water, read-out: concentration range of measured solubility, Ultrapure water) of no more than 10000 µg/mL.
